Measurements: ChEMBL document CHEMBL1201862, “PubChem BioAssay data set” (2004)
Where “and” joins values, the source holds several entries; their conditions need not be identical. Identical values can stand only once. Calls of active or inactive are those of the source.

Legend:
Cytochrome P450 3A4 = Cytochrome P450 3A4 (Homo sapiens, UniProt P08684);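 also: CYP3A4 tested as one member of a cytochrome P450 panel screen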
[1] = Artemis endonuclease inhibitor potency, dose response, biochemical, fluorescence intensity (AID 720701); assay type: functional;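 also: Artemis endonuclease enzyme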
Streptokinase A = molecular target: T1, Streptokinase A (Streptococcus pyogenes serotype M1, UniProt P10520); assay: S. pyogenes streptokinase expression inhibitors, potency, dose response, plasminogen activation absorbance, OD405 (AID 1914); assay type: functional, Streptococcus pyogenes M1 GAS;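 also: secreted streptokinase activity via plasminogen activation per viability signal from cell pellet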
T1 sequence (P10520 whole entry): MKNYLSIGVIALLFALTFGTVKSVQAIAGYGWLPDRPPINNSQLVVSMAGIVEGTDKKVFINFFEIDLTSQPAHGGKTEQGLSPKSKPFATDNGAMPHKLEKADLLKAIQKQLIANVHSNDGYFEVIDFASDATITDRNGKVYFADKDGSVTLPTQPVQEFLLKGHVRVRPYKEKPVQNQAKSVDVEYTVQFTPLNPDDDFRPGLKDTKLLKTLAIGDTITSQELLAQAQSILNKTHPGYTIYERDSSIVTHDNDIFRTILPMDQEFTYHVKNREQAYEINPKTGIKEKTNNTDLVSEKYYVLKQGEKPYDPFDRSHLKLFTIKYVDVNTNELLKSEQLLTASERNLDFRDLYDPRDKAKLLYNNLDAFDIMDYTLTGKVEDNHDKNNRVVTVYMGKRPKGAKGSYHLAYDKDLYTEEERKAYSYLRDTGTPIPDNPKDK

[2] = HepG2 cell cytotoxicity, dose response, cytotoxicity control for Shn3 inhibitor project, CellTiter-Glo, cherry-picked (AID 624134); assay type: functional, cell-based
[3] = Counterscreen for activators of the function of SWI/SNF related, matrix associated, actin dependent regulator of chromatin, subfamily a, member 2 (SMARCA2, BRM): Luminescence-based cell-based high throughput dose response assay to identify non-selective compounds using the VP16 reporter assay.; assay type: functional
Phosphomannomutase 2 = molecular target: T2, Phosphomannomutase 2 (Homo sapiens, UniProt O15305); assay: Counter screen SAR assay for PMM2 inhibitors via a fluorescence intensity assay. [Related pubchem assays (depositor defined):AID1545, AID1574]
T2 sequence (O15305 whole entry): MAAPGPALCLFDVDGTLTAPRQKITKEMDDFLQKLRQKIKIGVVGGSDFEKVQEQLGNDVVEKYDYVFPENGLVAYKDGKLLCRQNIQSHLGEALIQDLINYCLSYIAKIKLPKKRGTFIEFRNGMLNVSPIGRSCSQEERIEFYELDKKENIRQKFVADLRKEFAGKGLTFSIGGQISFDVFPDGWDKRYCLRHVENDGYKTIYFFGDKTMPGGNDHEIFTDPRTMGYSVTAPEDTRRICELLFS

[4] = molecular target: T3, Mannose-6-phosphate isomerase (Homo sapiens, UniProt P34949); assay: human PMI inhibitors, high substrate, primary screen, biochemical, fluorescence intensity, high mannose 6-phosphate (AID 1220)
T3 sequence (P34949 whole entry): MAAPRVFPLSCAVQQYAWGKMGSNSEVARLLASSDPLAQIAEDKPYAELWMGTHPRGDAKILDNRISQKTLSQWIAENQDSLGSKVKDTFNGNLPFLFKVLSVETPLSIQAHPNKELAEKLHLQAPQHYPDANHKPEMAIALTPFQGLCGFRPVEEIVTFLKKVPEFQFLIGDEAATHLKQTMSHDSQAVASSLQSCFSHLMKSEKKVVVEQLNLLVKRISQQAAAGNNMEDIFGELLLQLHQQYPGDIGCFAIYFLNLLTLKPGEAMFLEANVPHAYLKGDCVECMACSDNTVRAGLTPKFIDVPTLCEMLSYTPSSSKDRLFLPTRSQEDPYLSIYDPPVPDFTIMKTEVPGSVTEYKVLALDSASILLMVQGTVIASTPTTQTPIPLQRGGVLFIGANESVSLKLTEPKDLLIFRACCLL

[5] = molecular target: DNA dC->dU-editing enzyme APOBEC-3G (Homo sapiens, UniProt Q9HC16); assay: Dose Response confirmation of small molecule APOBEC3G DNA Deaminase Inhibitors via a fluorescence-based single-stranded DNA deaminase assay. [Related pubchem assays (depositor defined):AID493012, AID493028]; assay type: functional
[6] = molecular target: Cyclin-dependent kinase 1 (Homo sapiens, UniProt P06493); assay type: functional;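 also: Kinome-wide panel profiling, with the target listed as panel member CDC2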
[7] = molecular target: 5'-AMP-activated protein kinase catalytic subunit alpha-1 (Homo sapiens, UniProt Q13131); assay type: functional
[8] = molecular target: BDNF/NT-3 growth factors receptor (Homo sapiens, UniProt Q16620); assay type: functional;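 also: NTRK2 measured as one member of a broad kinome-wide kinase profiling panel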
Focal adhesion kinase 1 = Focal adhesion kinase 1 (Homo sapiens, UniProt Q05397); assay type: functional;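 also: measured as one member of a kinome panel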
[9] = molecular target: Serine/threonine-protein kinase BRSK1 (Homo sapiens, UniProt Q8TDC3); assay type: functional;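 also: measured within a kinome-wide kinase panel, with the target listed as KIAA1811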
[10] = molecular target: Mitogen-activated protein kinase 9 (Homo sapiens, UniProt P45984); assay type: functional;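 also: value from a kinome panel profiling assay, MAPK9 panel entry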
[11] = molecular target: Proto-oncogene tyrosine-protein kinase ROS (Homo sapiens, UniProt P08922); assay type: functional;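 also: ROS1 tested as one member of a kinome-wide kinase panel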
Proto-oncogene tyrosine-protein kinase ROS, sequence (P08922 whole entry): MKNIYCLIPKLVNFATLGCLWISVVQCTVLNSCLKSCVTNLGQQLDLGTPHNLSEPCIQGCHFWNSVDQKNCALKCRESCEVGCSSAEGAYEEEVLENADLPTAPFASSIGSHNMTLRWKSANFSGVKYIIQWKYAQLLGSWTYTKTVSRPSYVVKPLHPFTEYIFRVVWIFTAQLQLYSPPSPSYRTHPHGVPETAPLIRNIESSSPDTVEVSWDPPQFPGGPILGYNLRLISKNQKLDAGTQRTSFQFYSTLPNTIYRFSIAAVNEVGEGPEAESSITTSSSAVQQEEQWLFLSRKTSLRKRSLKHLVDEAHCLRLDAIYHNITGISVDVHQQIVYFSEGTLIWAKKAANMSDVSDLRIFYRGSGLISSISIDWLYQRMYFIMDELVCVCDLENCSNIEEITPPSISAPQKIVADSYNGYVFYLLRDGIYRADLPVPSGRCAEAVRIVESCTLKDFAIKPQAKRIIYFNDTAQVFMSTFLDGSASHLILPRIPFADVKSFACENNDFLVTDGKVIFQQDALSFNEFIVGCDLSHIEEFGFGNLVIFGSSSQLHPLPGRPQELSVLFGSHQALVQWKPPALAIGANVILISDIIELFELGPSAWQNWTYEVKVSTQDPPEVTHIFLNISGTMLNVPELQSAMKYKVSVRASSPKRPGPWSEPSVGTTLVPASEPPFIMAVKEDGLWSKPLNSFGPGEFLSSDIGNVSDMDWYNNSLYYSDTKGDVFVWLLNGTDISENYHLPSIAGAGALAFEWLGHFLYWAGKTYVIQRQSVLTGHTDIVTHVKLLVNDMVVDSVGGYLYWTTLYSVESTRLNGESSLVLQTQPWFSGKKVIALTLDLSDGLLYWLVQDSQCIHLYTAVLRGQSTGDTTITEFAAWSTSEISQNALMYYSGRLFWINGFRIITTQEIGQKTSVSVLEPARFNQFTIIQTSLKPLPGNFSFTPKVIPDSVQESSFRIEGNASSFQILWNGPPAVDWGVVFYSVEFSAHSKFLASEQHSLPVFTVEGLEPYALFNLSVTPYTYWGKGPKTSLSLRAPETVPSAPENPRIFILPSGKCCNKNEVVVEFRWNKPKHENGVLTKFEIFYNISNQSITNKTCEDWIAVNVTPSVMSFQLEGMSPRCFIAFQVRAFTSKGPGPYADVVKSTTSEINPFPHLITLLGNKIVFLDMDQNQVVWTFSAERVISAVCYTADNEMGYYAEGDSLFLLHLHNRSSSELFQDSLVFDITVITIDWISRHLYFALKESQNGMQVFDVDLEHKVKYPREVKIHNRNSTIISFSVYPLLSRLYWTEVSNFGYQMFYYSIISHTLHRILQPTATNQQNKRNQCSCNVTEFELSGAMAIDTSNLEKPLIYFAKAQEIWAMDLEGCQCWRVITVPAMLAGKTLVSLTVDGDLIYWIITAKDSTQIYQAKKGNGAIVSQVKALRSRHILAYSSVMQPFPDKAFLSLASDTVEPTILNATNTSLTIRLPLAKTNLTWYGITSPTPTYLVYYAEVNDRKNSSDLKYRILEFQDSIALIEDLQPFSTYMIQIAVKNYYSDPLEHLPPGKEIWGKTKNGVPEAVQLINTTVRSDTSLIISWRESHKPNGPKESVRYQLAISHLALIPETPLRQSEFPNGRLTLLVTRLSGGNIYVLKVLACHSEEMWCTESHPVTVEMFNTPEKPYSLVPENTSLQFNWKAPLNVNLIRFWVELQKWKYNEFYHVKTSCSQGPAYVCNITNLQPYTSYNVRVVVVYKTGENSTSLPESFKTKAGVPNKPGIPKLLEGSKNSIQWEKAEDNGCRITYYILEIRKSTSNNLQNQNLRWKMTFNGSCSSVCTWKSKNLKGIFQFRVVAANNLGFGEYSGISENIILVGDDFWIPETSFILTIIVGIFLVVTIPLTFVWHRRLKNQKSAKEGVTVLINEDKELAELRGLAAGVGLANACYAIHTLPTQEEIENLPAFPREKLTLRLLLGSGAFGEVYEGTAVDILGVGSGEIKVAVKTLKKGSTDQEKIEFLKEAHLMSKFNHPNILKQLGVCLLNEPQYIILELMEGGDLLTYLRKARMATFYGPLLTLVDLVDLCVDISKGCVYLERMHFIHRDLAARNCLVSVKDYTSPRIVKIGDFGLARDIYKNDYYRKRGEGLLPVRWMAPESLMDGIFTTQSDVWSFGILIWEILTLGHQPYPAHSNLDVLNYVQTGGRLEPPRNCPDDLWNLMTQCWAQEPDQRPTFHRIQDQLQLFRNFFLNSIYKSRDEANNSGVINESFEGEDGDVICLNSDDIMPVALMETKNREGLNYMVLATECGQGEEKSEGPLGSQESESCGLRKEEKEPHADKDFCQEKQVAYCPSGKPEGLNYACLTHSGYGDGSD

[12] = molecular target: Mitogen-activated protein kinase kinase kinase kinase 4 (Homo sapiens, UniProt O95819); assay type: functional
Mitogen-activated protein kinase kinase kinase kinase 4, sequence (O95819 whole entry): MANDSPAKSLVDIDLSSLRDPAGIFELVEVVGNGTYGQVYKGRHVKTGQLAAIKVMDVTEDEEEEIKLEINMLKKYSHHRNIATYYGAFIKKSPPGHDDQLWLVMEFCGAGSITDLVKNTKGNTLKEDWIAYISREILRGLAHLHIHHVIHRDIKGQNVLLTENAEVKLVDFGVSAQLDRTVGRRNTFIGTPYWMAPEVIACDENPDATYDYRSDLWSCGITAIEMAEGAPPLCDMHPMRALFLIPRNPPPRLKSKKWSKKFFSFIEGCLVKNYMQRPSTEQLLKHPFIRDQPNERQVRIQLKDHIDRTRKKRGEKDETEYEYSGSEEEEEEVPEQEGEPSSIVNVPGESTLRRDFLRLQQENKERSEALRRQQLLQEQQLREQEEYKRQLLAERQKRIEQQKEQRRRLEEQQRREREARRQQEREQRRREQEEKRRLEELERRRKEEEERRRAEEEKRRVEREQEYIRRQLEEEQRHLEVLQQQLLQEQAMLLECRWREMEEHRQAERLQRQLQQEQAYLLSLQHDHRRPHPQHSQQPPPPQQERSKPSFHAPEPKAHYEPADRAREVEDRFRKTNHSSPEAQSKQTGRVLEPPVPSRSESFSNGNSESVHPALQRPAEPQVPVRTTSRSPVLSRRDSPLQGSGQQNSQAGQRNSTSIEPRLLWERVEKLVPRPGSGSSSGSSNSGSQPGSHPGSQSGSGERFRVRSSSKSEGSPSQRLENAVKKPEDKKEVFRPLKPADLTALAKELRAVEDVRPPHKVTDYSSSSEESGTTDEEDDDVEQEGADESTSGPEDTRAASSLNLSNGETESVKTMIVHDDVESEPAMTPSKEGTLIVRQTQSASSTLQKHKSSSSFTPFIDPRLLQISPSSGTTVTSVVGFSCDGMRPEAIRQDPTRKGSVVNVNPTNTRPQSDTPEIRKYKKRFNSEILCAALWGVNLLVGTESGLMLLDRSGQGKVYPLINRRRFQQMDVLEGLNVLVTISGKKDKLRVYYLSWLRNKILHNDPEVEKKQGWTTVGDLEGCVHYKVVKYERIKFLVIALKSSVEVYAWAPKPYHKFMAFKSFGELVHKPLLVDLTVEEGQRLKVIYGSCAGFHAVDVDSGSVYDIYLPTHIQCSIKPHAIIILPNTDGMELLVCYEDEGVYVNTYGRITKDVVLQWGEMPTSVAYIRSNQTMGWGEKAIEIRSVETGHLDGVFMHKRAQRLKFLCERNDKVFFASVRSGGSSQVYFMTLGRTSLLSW

[13] = molecular target: RAC-gamma serine/threonine-protein kinase (Homo sapiens, UniProt Q9Y243); assay type: functional
RAC-gamma serine/threonine-protein kinase, sequence (Q9Y243 whole entry): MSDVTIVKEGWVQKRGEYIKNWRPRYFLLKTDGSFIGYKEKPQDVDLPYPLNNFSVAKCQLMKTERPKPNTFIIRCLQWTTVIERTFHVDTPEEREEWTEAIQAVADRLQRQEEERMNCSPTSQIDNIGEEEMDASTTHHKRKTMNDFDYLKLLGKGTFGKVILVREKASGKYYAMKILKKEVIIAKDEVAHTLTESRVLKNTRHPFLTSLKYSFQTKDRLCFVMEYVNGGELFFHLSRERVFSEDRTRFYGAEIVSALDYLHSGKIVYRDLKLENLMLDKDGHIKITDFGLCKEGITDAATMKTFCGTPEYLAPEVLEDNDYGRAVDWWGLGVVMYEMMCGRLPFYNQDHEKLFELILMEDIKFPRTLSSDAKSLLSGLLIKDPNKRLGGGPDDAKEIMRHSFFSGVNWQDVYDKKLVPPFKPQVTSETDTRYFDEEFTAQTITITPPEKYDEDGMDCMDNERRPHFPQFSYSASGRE

[14] = molecular target: Tyrosine-protein kinase receptor TYRO3 (Homo sapiens, UniProt Q06418); assay type: functional;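 also: TYRO3 value obtained as one member of a kinome-wide profiling panel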
[15] = molecular target: Dual specificity tyrosine-phosphorylation-regulated kinase 3 (Homo sapiens, UniProt O43781); assay type: functional;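 also: measured as one member of a broad kinase panel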
[16] = molecular target: Ribosomal protein S6 kinase beta-1 (Homo sapiens, UniProt P23443); assay type: functional;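 also: measured as one member of a kinome-wide profiling panel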
[17] = molecular target: Tyrosine-protein kinase receptor UFO (Homo sapiens, UniProt P30530); assay type: functional
[18] = molecular target: T4, RNA-binding protein pos-1 (Caenorhabditis elegans, UniProt G5EF15); assay: inhibitors of POS-1/mex-3 RNA binding, dose response, biochemical, fluorescence polarization (AID 1964);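 also: purified POS-1 fused to maltose binding protein made in E. coli; potency of compounds blocking POS-1 binding to fluorescent RNA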
T4 sequence (G5EF15 whole entry): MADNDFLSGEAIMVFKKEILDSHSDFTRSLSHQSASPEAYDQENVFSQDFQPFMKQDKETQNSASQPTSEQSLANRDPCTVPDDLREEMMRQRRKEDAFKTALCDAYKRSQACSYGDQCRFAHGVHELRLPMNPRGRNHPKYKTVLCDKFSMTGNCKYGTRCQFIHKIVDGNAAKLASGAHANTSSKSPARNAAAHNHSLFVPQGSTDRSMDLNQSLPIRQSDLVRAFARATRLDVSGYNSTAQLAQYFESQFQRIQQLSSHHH

Cytochrome P450 2C9 = Cytochrome P450 2C9 (Homo sapiens, UniProt P11712)
[19] = molecular target: Bifunctional protein GlmU (Mycobacterium tuberculosis, UniProt P9WMN3); assay: Inhibitors of Mycobacterial Glucosamine-1-phosphate acetyl transferase (GlmU). Secondary screen.; set-up: species or system Mycobacterium tuberculosis H37Rv
Bifunctional protein GlmU, sequence (P9WMN3 whole entry): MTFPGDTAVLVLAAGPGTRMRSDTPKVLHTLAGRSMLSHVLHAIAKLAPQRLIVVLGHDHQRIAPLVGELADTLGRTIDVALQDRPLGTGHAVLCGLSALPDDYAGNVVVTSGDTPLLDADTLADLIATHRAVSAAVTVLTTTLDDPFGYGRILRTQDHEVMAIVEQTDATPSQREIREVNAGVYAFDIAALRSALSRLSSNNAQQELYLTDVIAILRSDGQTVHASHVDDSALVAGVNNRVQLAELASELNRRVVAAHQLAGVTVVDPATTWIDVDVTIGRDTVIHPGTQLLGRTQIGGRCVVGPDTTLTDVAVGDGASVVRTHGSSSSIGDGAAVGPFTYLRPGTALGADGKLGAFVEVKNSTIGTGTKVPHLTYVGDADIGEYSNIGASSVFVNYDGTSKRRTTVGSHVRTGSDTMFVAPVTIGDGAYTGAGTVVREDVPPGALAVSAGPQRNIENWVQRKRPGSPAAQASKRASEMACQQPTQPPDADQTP

Cytochrome P450 3A4, sequence (P08684 whole entry): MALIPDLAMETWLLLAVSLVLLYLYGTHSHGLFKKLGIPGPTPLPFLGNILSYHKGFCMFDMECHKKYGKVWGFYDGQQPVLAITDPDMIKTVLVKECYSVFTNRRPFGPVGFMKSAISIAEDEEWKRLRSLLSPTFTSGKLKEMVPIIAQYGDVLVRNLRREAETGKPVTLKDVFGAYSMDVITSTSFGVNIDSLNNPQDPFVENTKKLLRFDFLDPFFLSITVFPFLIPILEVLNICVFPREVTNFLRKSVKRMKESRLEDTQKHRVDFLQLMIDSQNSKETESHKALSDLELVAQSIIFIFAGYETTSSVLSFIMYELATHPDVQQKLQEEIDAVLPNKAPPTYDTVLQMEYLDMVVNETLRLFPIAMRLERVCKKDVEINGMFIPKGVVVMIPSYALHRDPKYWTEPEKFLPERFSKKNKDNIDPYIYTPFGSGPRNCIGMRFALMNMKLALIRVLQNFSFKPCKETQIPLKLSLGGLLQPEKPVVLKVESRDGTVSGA

In the case of `CC(=O)N(/N=C1\Sc2ccccc2C1=O)c1ccccc1C`, the AC50 (Cytochrome P450 3A4) is reported as 31.6 µM (inconclusive) and the IC50 [1] is reported as 7.4 µM (active).

In the case of `CCCC(=O)NC(c1ccc(Cl)cc1)c1ccc2cccnc2c1O` (stereo unspecified), the EC50 (Streptokinase A) is reported as > 150 µM (not active) and the AC50 [2] is reported as 1.17 µM (active).

In the case of `Cc1ccc(-n2sc3ccccc3c2=O)cc1`, the EC50 [3] is reported as 51.5 µM (inactive), the IC50 (Phosphomannomutase 2) is reported as > 100 µM (inactive) and 38 µM (active) and the EC50 (Streptokinase A) is reported as > 150 µM (not active). For the same compound, the IC50 [4] was 22 µM (active) and the IC50 [5] was 18.2 µM (active).

For `Cc1cccc(NC(=O)Nc2ccc3c(c2)CCc2sc4ncnc(N)c4c2-3)c1`, the Ki [6] was > 7.94 µM (inactive), the Ki [7] was 0.398 µM (active) and the Ki [8] was 0.2 µM (active). For the same compound, the Ki (Focal adhesion kinase 1) was 0.631 µM (active), the Ki [9] was 3.16 µM (active) and the Ki [10] was > 3.98 µM (inactive). The Ki [11] was 2 µM (active), the Ki [12] was 2.51 µM (active) and the Ki [13] was > 10 µM (inactive). The Ki [14] was > 2 µM (inactive), the Ki [15] was > 6.31 µM (inactive) and the Ki [16] was 0.0398 µM (active). For the same compound, the Ki [17] was 0.0158 µM (active).

With `CCC(=O)NC(c1ccc(C)cc1)c1ccc2cccnc2c1O` (stereo unspecified) the AC50 [2] was 1.24 µM (active).

In the case of `N/C(=N\N=C/c1ccc(-c2ccc(O)c(C(=O)O)c2)o1)N[N+](=O)[O-]`, the EC50 [18] is reported as 29.9 µM (active), the AC50 (Cytochrome P450 2C9) is reported as 7.94 µM (inconclusive) and the IC50 [19] is reported as 28.4 µM (active).
